The text below walks through data of patent US20110230476A1, “PI3 KINASE INHIBITORS AND USES THEREOF” (AVILA THERAPEUTICS, INC., priority 2009, published 2011).

Molecules are shown by their SMILES. Bounds are passed on as bounds.

T1 sequence (P42336 whole entry): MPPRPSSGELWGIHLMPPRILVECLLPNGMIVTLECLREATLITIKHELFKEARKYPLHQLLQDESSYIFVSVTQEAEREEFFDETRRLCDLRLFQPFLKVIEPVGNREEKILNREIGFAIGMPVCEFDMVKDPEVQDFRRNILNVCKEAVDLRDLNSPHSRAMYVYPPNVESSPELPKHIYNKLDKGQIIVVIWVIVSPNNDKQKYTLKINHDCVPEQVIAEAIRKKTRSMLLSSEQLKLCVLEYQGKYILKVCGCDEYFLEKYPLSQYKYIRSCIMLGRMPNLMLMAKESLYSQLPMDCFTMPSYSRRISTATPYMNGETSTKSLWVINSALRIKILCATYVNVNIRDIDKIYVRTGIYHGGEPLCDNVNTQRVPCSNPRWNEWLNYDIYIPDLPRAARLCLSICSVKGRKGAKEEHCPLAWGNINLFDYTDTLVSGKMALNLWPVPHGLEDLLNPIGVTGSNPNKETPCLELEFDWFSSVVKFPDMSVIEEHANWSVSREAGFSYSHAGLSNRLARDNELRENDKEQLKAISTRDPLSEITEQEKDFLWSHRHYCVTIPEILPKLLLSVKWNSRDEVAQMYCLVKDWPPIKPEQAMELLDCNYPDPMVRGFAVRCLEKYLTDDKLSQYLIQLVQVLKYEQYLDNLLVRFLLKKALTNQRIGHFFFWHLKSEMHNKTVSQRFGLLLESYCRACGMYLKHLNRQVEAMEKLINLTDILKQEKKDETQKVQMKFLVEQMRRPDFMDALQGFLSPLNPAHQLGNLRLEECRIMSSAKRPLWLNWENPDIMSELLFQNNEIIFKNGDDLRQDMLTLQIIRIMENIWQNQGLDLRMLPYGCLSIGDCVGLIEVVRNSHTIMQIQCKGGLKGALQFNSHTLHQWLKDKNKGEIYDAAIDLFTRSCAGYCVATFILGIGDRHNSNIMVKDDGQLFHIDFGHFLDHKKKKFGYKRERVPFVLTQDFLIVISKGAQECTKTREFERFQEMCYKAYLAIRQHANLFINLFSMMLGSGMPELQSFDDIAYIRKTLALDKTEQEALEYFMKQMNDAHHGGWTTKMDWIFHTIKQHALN
T1 sequence (P27986 whole entry partner): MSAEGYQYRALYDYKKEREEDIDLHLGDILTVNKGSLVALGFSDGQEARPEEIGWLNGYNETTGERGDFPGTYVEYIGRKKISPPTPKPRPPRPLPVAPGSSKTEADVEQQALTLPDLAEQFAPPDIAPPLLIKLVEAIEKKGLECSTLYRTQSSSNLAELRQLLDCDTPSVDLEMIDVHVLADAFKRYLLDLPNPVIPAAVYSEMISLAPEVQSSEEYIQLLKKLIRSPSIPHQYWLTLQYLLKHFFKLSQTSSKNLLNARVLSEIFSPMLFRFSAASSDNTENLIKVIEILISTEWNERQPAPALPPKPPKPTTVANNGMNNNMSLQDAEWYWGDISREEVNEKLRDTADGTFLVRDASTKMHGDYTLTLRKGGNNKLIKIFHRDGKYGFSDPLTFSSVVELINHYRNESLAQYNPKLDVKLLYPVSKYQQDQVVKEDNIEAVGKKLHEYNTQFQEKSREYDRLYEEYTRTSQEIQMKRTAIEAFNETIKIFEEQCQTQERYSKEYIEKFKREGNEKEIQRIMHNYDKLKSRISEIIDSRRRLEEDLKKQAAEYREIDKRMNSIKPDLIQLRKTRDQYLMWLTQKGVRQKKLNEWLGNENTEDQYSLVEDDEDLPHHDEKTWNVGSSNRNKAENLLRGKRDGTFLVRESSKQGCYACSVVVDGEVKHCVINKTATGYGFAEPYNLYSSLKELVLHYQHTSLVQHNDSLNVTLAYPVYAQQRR

The assay concerns the target T1, PI3Kα (p110α/p85α) (Homo sapiens, UniProt P42336).
T1 construct: purchased BPS Bioscience (San Diego, Calif.) or Millipore (Billerica, Mass.)
As to the kind of experiment: HTRF assay, potency against active PI3Kα. The assay is classed as biochemical. The note with it: HTRF; [ATP]=50 μM, [di-C8-PIP2]=10 μM; 30 min pre-incubation; read-out: PI3Kα Inhibition. In short, it runs like this: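 Active p110/p85α lipid kinase reactions were started with ATP and run 30-60 minutes at 25 °C, then stopped and developed with HTRF detection mix. HTRF ratio converted to % inhibition against ±enzyme controls; IC50 from log[inhibitor] vs response, variable slope.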
For orientation: In TR-FRET formats the signal depends on donor and acceptor labels being close together.
For `C=CC(=O)Nc1ccc(CCNC(=O)c2cc(-c3cnc(N)nc3C)nc(N3CCOCC3)c2)cc1` [XII-16, N-(4-acrylamidophenethyl)-2-(2-amino-4-methylpyrimidin-5-yl)-6-morpholinoisonicotinamide], the IC50 lay in the range of 100 to 1000 nM.

As to `CC(C)=CC(=O)CCC(=O)N1CCN(Cc2cc(-c3cnc(N)nc3)nc(N3CCOCC3)c2)CC1` [XII-1, 1-(4-((2-(2-aminopyrimidin-5-yl)-6-morpholinopyridin-4-yl)methyl)piperazin-1-yl)-6-methylhept-5-ene-1,4-dione], the IC50 is 100 to 1000 nM.

As for `C=CC(=O)N(C)CC(=O)N1CCC(n2nc(-c3cc4cc(O)ccc4[nH]3)c3c(N)ncnc32)CC1` [XI-8, N-(2-(4-(4-amino-3-(5-hydroxy-1H-indol-2-yl)-1H-pyrazolo[3,4-d]pyrimidin-1-yl)piperidin-1-yl)-2-oxoethyl)-N-methylacrylamide], the IC50 is greater than 1000 nM.

Take `C=CC(=O)Nc1ccc(C(=O)N2CC=C(c3cc4nc(-c5cnc(N)nc5)cc(C5=CCOCC5)c4s3)CC2)cc1` [II-g-5, N-(4-(4-(5-(2-aminopyrimidin-5-yl)-7-(3,6-dihydro-2H-pyran-4-yl)thieno[3,2-b]pyridin-2-yl)-1,2,3,6-tetrahydropyridine-1-carbonyl)phenyl)acrylamide]: the IC50 was greater than 1000 nM.

With `COc1c(OCCNC(=O)CCC(=O)/C=C/c2ccccc2)ccc2c1N=C(NC(=O)c1cccnc1)N1CCN=C21` [IX-3, (E)-N-(7-methoxy-8-(2-(4-oxo-6-phenylhex-5-enamido)ethoxy)-2,3-dihydroimidazo[1,2-c]quinazolin-5-yl)nicotinamide], the IC50 lay within 10 to 100 nM.

Regarding `C/C=C(\C)C(=O)CCC(=O)N1CCN(Cc2cc3nc(-c4cccc5[nH]ncc45)nc(N4CCOCC4)c3s2)CC1` [II-a-149, (E)-1-(4-((2-(1H-indazol-4-yl)-4-morpholinothieno[3,2-d]pyrimidin-6-yl)methyl)piperazin-1-yl)-5-methylhept-5-ene-1,4-dione], the IC50 was in the range of 100 to 1000 nM.

With `CC(C)=CC(=O)CCC(=O)N1CCN(Cc2cc3nc(-c4cnc(N)nc4)cc(N4CCOCC4)c3s2)CC1` [II-g-7, 1-(4-((5-(2-aminopyrimidin-5-yl)-7-morpholinothieno[3,2-b]pyridin-2-yl)methyl)piperazin-1-yl)-6-methylhept-5-ene-1,4-dione], the IC50 lay within 100 to 1000 nM.

`C/C=C/C(=O)CCC(=O)NC1CCN(c2ccc(-c3cc4nc(-c5cccc(O)c5)nc(N5CCOCC5)c4s3)cc2)CC1` [II-a-109, (E)-N-(1-(4-(2-(3-hydroxyphenyl)-4-morpholinothieno[3,2-d]pyrimidin-6-yl)phenyl)piperidin-4-yl)-4-oxohept-5-enamide]: the IC50 is less than 10 nM.

In the case of `C/C(=C\c1ccccn1)C(=O)CCC(=O)N1CCN(Cc2cc3nc(-c4cccc5[nH]ncc45)nc(N4CCOCC4)c3s2)CC1` [II-a-167, (E)-1-(4-((2-(1H-indazol-4-yl)-4-morpholinothieno[3,2-d]pyrimidin-6-yl)methyl)piperazin-1-yl)-5-methyl-6-(pyridin-2-yl)hex-5-ene-1,4-dione], the IC50 was 100 to 1000 nM.

Turning to `CC(C)=CC(=O)C(=O)N1CCN(c2ccc(-c3cc(-c4cnc(N)nc4)nc(N4CCOCC4)c3)cn2)CC1` [XII-25, 1-(4-(2′-(2-aminopyrimidin-5-yl)-6′-morpholino-3,4′-bipyridin-6-yl)piperazin-1-yl)-4-methylpent-3-ene-1,2-dione], the IC50 was 10 to 100 nM.

`C=CC(=O)Nc1ccc(CCNC(=O)c2cc(-c3cnc(N)cc3C(F)(F)F)nc(N3CCOCC3)c2)cc1` [XII-11, N-(4-acrylamidophenethyl)-6′-amino-6-morpholino-4′-(trifluoromethyl)-2,3′-bipyridine-4-carboxamide]: the IC50 is greater than 1000 nM.

On to `CC(C)=CC(=O)CCCCC#Cc1cc(-c2cccc3[nH]ncc23)nc(N2CCOCC2)c1` [XII-7, 10-(2-(1H-indazol-4-yl)-6-morpholinopyridin-4-yl)-2-methyldec-2-en-9-yn-4-one], for which the IC50 was greater than 1000 nM.

On to `C/C=C/C(=O)CCC(=O)N1CCC2(CC1)CN(c1cc(-c3cnc(N)nc3)nc(N3CCOCC3)c1)C2` [XII-40, (E)-1-(2-(2-(2-aminopyrimidin-5-yl)-6-morpholinopyridin-4-yl)-2,7-diazaspiro[3.5]nonan-7-yl)hept-5-ene-1,4-dione], for which the IC50 was 100 to 1000 nM.

Regarding `C=C(C)C(=O)CCC(=O)N1CCC(O)(C#Cc2cc3nc(-c4cccc(O)c4)nc(N4CCOCC4)c3s2)CC1` [II-a-105, 1-(4-hydroxy-4-((2-(3-hydroxyphenyl)-4-morpholinothieno[3,2-d]pyrimidin-6-yl)ethynyl)piperidin-1-yl)-5-methylhex-5-ene-1,4-dione], the IC50 is less than 10 nM.

In the case of `C=CC(=O)NOCC(=O)N1CCN(Cc2cc3nc(-c4cccc5[nH]ncc45)nc(N4CCOCC4)c3s2)CC1` [II-a-147, N-(2-(4-((2-(1H-indazol-4-yl)-4-morpholinothieno[3,2-d]pyrimidin-6-yl)methyl)piperazin-1-yl)-2-oxoethoxy)acrylamide], the IC50 was in the range of 100 to 1000 nM.

As for `C/C=C/C(=O)CCC(=O)N1CCN(c2ccc(-c3ccnc4ccc(/C=C5\SC(=O)NC5=O)cc34)cn2)CC1` [V-13, (Z)-5-((4-(6-(4-((E)-4-oxohept-5-enoyl)piperazin-1-yl)pyridin-3-yl)quinolin-6-yl)methylene)thiazolidine-2,4-dione], the IC50 is less than 10 nM.

As for `CC(C)=CC(=O)CCc1ccc(C#Cc2cc(-c3cnc(N)nc3)nc(N3CCOCC3)c2)cc1` [XII-21, 1-(4-((2-(2-aminopyrimidin-5-yl)-6-morpholinopyridin-4-yl)ethynyl)phenyl)-5-methylhex-4-en-3-one], the IC50 is greater than 1000 nM.

`CC(C)=CC(=O)C(=O)N1CCN(c2cc(C)c(-c3cc(-c4cnc(N)nc4)nc(N4CCOCC4)c3)cn2)CC1` [XII-26, 1-(4-(2′-(2-aminopyrimidin-5-yl)-4-methyl-6′-morpholino-3,4′-bipyridin-6-yl)piperazin-1-yl)-4-methylpent-3-ene-1,2-dione]: the IC50 was in the range of 10 to 100 nM.

With `C=CC(=O)NCc1ccc(OC)c(-n2c(CSc3ncnc4[nH]cnc34)nc3cccc(Cl)c3c2=O)c1` [I-5, N-(3-(2-((9H-purin-6-ylthio)methyl)-5-chloro-4-oxoquinazolin-3(4H)-yl)-4-methoxybenzyl)acrylamide], the IC50 was greater than 1000 nM.

Regarding `CC(C)=CC(=O)CCCC(=O)N1CC=C(c2cc3nc(-c4cnc(N)nc4)cc(C4=CCOCC4)c3s2)CC1` [II-g-4, 1-(4-(5-(2-aminopyrimidin-5-yl)-7-(3,6-dihydro-2H-pyran-4-yl)thieno[3,2-b]pyridin-2-yl)-5,6-dihydropyridin-1(2H)-yl)-7-methyloct-6-ene-1,5-dione], the IC50 was greater than 1000 nM.

In the case of `CCCC(=O)CCC(=O)N1CCC(n2nc(-c3ccc(OC)c(OC)c3)c3c(N)ncnc32)CC1` [XI^R-1, 1-(4-(4-amino-3-(3,4-dimethoxyphenyl)-1H-pyrazolo[3,4-d]pyrimidin-1-yl)piperidin-1-yl)heptane-1,4-dione], the IC50 was greater than 1000 nM.

With `CC(C)=CC(=O)CCCC(=O)N1CC2(CCN(c3cc(-c4cnc(N)nc4)nc(N4CCOCC4)c3)CC2)C1` [XII-44, 1-(7-(2-(2-aminopyrimidin-5-yl)-6-morpholinopyridin-4-yl)-2,7-diazaspiro[3.5]nonan-2-yl)-7-methyloct-6-ene-1,5-dione], the IC50 was greater than 1000 nM.

Take `C=CC(=O)NCCCC(=O)N1CCN(Cc2cc3nc(-c4cccc5[nH]ncc45)nc(N4CCOCC4)c3s2)CC1` [II-a-20, N-(4-(4-((2-(1H-indazol-4-yl)-4-morpholinothieno[3,2-d]pyrimidin-6-yl)methyl)piperazin-1-yl)-4-oxobutyl)acrylamide]: the IC50 fell in the range of 100 to 1000 nM.

Take `C/C=C/C(=O)CCC(=O)NCCCC(=O)N1CCN(Cc2cc3nc(-c4cccc5[nH]ncc45)nc(N4CCOCC4)c3s2)CC1` [II-a-19, (E)-N-(4-(4-((2-(1H-indazol-4-yl)-4-morpholinothieno[3,2-d]pyrimidin-6-yl)methyl)piperazin-1-yl)-4-oxobutyl)-4-oxohept-5-enamide]: the IC50 lay within 10 to 100 nM.

`C=CC(=O)N(C)CC(=O)N1CCC(n2nc(-c3ccc(OC)c(OC)c3)c3c(N)ncnc32)CC1` [XI-2, N-(2-(4-(4-amino-3-(3,4-dimethoxyphenyl)-1H-pyrazolo[3,4-d]pyrimidin-1-yl)piperidin-1-yl)-2-oxoethyl)-N-methylacrylamide]: the IC50 was greater than 1000 nM.

For the compound `CC(C)=CC(=O)CCCCC#Cc1cc(-c2cnc(N)cc2C(F)(F)F)nc(N2CCOCC2)c1` [XII-8, 10-(6′-amino-6-morpholino-4′-(trifluoromethyl)-2,3′-bipyridin-4-yl)-2-methyldec-2-en-9-yn-4-one], the IC50 is greater than 1000 nM.

For `C=CC(=O)N1CCc2cc(-c3cc4nc(-c5cccc(O)c5)nc(N5CCOCC5)c4s3)ccc2C1` [II-a-66, 1-(6-(2-(3-hydroxyphenyl)-4-morpholinothieno[3,2-d]pyrimidin-6-yl)-3,4-dihydroisoquinolin-2(1H)-yl)prop-2-en-1-one], the IC50 lay within 10 to 100 nM.

Turning to `CC(C)=CC(=O)C1(C(=O)N2CCC3(CC2)CN(c2cc(-c4cnc(N)nc4)nc(N4CCOCC4)c2)C3)CC1` [XII-38, 1-(1-(2-(2-(2-aminopyrimidin-5-yl)-6-morpholinopyridin-4-yl)-2,7-diazaspiro[3.5]nonane-7-carbonyl)cyclopropyl)-3-methylbut-2-en-1-one], the IC50 fell in the range of 100 to 1000 nM.

For `C/C=C/C(=O)CCC(=O)NCc1cccc(-c2cc3nc(-c4cccc(O)c4)nc(N4CCOCC4)c3s2)c1` [II-a-79, (E)-N-(3-(2-(3-hydroxyphenyl)-4-morpholinothieno[3,2-d]pyrimidin-6-yl)benzyl)-4-oxohept-5-enamide], the IC50 is less than 10 nM.

With `C=CC(=O)NCC(=O)NCc1ccc(-c2cc3nc(-c4cccc5[nH]ncc45)nc(N4CCOCC4)c3s2)cc1` [II-a-128, N-(2-(4-(2-(1H-indazol-4-yl)-4-morpholinothieno[3,2-d]pyrimidin-6-yl)benzylamino)-2-oxoethyl)acrylamide], the IC50 was 100 to 1000 nM.
